Like-named read-outs stand apart in the source and are kept apart here.
Columns and labels:
humans = details: cited from earlier work
mammals = details: cited from earlier work
human subjects = experiment: effects of citicoline on tobacco use (cigarettes smoked per day) versus placebo; assay type: in vivo; details: compared to placebo, FIG. 1
Source text: FIG. 1 is a graph of the effects of citicoline on tobacco use.

[1] = cited from earlier work
[2] = cited from earlier work; remark: listed apart in the source
[3] = major excretion route, % of dose

In the case of `O=c1ccn([C@@H]2O[C@H](CO)[C@@H](O)[C@H]2O)c(=O)[nH]1` [uridine], the tolerability (humans) is given as “well tolerated” and the tolerability (mammals; mammals) is given as “well tolerated”.
For `C[N+](C)(C)CCOP(=O)(O)OP(=O)([O-])OC[C@H]1O[C@@H](n2ccc(N)nc2=O)[C@H](O)[C@@H]1O` [CDP-choline, cytidine 5′-diphosphocholine], the “usage of tobacco (number of cigarettes smoked per day)” value (human subjects) is given as “reduces the usage of tobacco”, the “rest of the dose metabolized and retained in tissues” value ([1]; % of dose) is given as 83.9% and the “conversion into circulating metabolites” value ([1]; administered either orally or intravenously) is given as “rapidly converted into the two major circulating metabolites, choline and cytidine”. The excretion via lung [1, 3] was 12.9%, the excretion via urine [1, 3] was 2.4% and the “CDP-choline and/or its metabolites absorbed” value ([1]; orally administered) was “more than 99%”. The excreted in feces ([1]; orally administered) was “less than 1%”, the “reported cases of overdoses” value ([2]; in vivo) was “no reported cases of overdoses” and the “toxicity symptoms on ingestion of large amounts” value ([2]; preclinical studies, salivation, lacrimation, urination, defecation, vomiting) was “common cholinergic symptoms”. The tolerability (mammals; mammals) was “well tolerated”.
In the case of `CN(CC(=O)O)C(=N)N` [Creatine, creatine], the tolerability (humans) is listed as “well tolerated at relatively high doses”.
In the case of `CC(=O)OC[C@H]1O[C@@H](n2ccc(=O)[nH]c2=O)[C@H](OC(C)=O)[C@@H]1OC(C)=O` [triacetyl uridine], the tolerability (mammals; in vivo) is given as “well tolerated”.

Reference: US7053064B2, “Compounds for the treatment of tobacco dependence and withdrawal” (The McLean Hospital Corporation, priority 2002, dated 2006)
